In brackets after ≈: the same amount, converted by molar mass.
What was measured:
K. pneumoniae ATCC700603 = assay: Synergy test, checkerboard broth microdilution; format: cell-based
Description: For the synergy test, standard checkerboard broth microdilution assays were conducted to test the synergistic effect of combined antimicrobials using the same condition as before[51],[56]. […] The initial concentration of both peptides was their individual MIC. 50 µL fresh bacterial suspension prepared as above was added to the wells already containing the antimicrobial compound mixture to achieve 100 µL final volume per well.
The fractional inhibitory concentration (FIC) indices[57] were calculated using the formula FICI = FICa + FICb = MICac/MICa + MICbc/MICb, to determine whether the combination is additive, synergistic or antagonistic[51],[57]. The MICa and MICb is the MIC of compound A or B alone, respectively. MICac is the MIC of compound A in combination with compound B and MICbc is the MIC of compound B when it was combined with compound A. The FIC corresponds to the MIC of a compound in combination with the other compound, divided by the MIC of the compound alone. FICa is FIC of compound A while FICb is FIC of compound B. The FICI was interpreted according to EUCAST[58] as follows: synergistic, FICI ≤ 0.5; additive,0.5 < FICI ≤ 1; indifferent, 1 < FICI < 2; antagonistic, FICI ≥ 2.

HEK-293 cells = assay: Cytotoxicity, cell viability (CellTiter-Glo); details: for Cell viability (% of control): HEK-293, CellTiter-Glo
Description: 96-well plates were seeded with HEK-293 cells at a concentration of 3*10^5 cells/well in 100 µL of DMEM growth medium supplemented with 1% NEAA and 10% FBS. Border wells were filled with 100 µL of sterile PBS. […] ATP levels were measured by adding 50 µL of CellTiter-Glo reagent (Promega, Madison, US) to each well, and luminescence was measured with a SpectraMax i3 microplate reader after 5 minutes of incubation. The potential effect of the tested compounds on cell viability was determined by comparing the signal obtained in the presence of different concentrations of the compounds with those obtained in the control wells. All these tests were performed in triplicate.

[1] = test system: five Gram-negative strains; assay: Bactericidal effect testing; format: cell-based; details: 10-fold MIC (alone or in combination), CAMHB, 37 °C, 3 h, plating on LB agar; no colonies of any of the five strains
Description: After that, 50 µL of a 10^3-fold diluted sample were plated on LB agar[59].

P. aeruginosa B1954 = assay: microbe, parasite or virus in culture; format: cell-based; details: Pseudomonas aeruginosa, B1954, read-out: MIC alone (MICA vancomycin, MICB D-11)
Description: (§1) MIC tests were performed in triplicate by liquid growth inhibition microdilution assays in sterile polypropylene microtiter plates according to the Clinical and Laboratory Standards Institute (CLSI) guideline for bacteria that grow aerobically. Briefly, the indicator strains were first streaked on the appropriate agar plate, and then single colonies were picked and incubated overnight in liquid broth. The final inoculum of bacteria was 5*10^5 CFU/mL prepared in CAMHB (cationic adjusted Mueller–Hinton broth, Sigma-Aldrich) or CAMHB plus 5% of lysed horse blood (TCS Biosciences, Buckingham, UK) in the case of S. pneumoniae. The antimicrobials were 2-fold serially diluted and 50 µL diluted bacterial suspension was added to each well to make the final volume 100 µL. The microtiter plates and the count plates were incubated at 37 °C for 16–20 h without shaking. Growth inhibition was assessed by measuring the OD600 using a microplate reader (Tecan Infinity F200). The lowest concentration of the antimicrobials that inhibits visible growth of the indicator strain is identified as the MIC value.

[2] = test system: A. baumannii ATCC BAA-1605; assay: microbe, parasite or virus in culture; format: cell-based; details: Acinetobacter baumannii, ATCCBAA1605, read-out: MIC alone (MICA vancomycin, MICB D-11)
Description: as §1

E. coli B1927 = assay: microbe, parasite or virus in culture; format: cell-based; details: Escherichia coli, B1927, read-out: MIC alone (MICA vancomycin, MICB D-11)
Description: as §1

[3] = test system: K. pneumoniae ATCC BAA-2524; assay: microbe, parasite or virus in culture; format: cell-based; details: Klebsiella pneumoniae, ATCCBAA2524, read-out: MIC alone (MICA vancomycin, MICB D-11)
Description: as §1

A. baumannii B2026 = assay: microbe, parasite or virus in culture; format: cell-based; details: Acinetobacter baumannii, B2026, read-out: MIC alone (MICA vancomycin, MICB D-11)
Description: as §1

K. pneumoniae B1945 = assay: microbe, parasite or virus in culture; format: cell-based; details: Klebsiella pneumoniae, B1945, read-out: MIC alone (MICA vancomycin, MICB D-11)
Description: as §1

[4] = test system: P. aeruginosa ATCC BAA-2108; assay: microbe, parasite or virus in culture; format: cell-based; details: Pseudomonas aeruginosa, ATCCBAA2108, read-out: MIC alone (MICA vancomycin, MICB D-11)
Description: as §1

P. aeruginosa PA14 = assay: Murine abscess model; format: in vivo, BALB/c mice
Description: An overnight P. aeruginosa PA14 culture was inoculated into fresh LB medium (100-fold dilution) and grown until an OD600 of 1.0. The culture was washed twice and resuspended in 0.9% NaCl to 10^8 CFU/mL. Four groups of five 6-week-old female BALB/c mice were used. […] After 24 h, the mice were sacrificed and the abscesses were excised to count the CFU. The bacterial loads were determined by serial dilution and plating. All animal experiments complied with the US and Chinese national guidelines for the use of animals in research. The protocol was approved by the Animal Care and Use Committee of the College of Life Sciences, Nankai University (permission number NK-04-2012). All procedures involving animals were performed after animals were anesthetized. The experimental results were analyzed with the GraphPad Prism software.

K. pneumoniae LMG 20218 = assay: Antimicrobial activity in blood (ex vivo bacteremia model); format: cell-based; details: human blood, 10^8 CFU/mL inoculum, 37 °C, alone or (combination) with 4 µM D-11, triplicate
Description: Briefly, blood from healthy donors was obtained from Sanquin (certified Dutch organization responsible for meeting the need in healthcare for blood and blood products, https://www.sanquin.nl/) and infected with 10^8 CFU/mL of K. pneumoniae LMG 20218. […] At 1, 2, 4, and 6 h 100 µL samples were taken from each one of the tubes and decimal serially diluted in PBS. Drops of 10 µL of each one of the dilutions were spotted on LB agar medium to follow the development of the infection. The experiment was performed in triplicate. Non-infected blood, infected blood, and blood plus peptide were used as a control.

## CN[C@H](CC(C)C)C(=O)N[C@H]1C(=O)N[C@@H](CC(N)=O)C(=O)N[C@H]2C(=O)N[C@H]3C(=O)N[C@H](C(=O)N[C@H](C(=O)O)c4cc(O)cc(O)c4-c4cc3ccc4O)[C@H](O)c3ccc(c(Cl)c3)Oc3cc2cc(c3O[C@@H]2O[C@H](CO)[C@@H](O)[C@H](O)[C@H]2O[C@H]2C[C@](C)(N)[C@H](O)[C@H](C)O2)Oc2ccc(cc2Cl)[C@H]1O [Vancomycin]
K. pneumoniae ATCC700603
  MICAB: MIC of vancomycin in combination with D-11 at the MICAC concentration: 11.04 µM
HEK-293 cells; 22 µM (22/22 µM for the combination), replicate 1
  Cell viability (% of control): 96 % of control
HEK-293 cells; 22 µM (22/22 µM for the combination), replicate 2
  Cell viability (% of control): 107 % of control
HEK-293 cells; 22 µM (22/22 µM for the combination), replicate 3
  Cell viability (% of control): 113 % of control
HEK-293 cells; 44 µM (44/44 µM for the combination), replicate 1
  Cell viability (% of control): 110 % of control
HEK-293 cells; 44 µM (44/44 µM for the combination), replicate 2
  Cell viability (% of control): 102 % of control
HEK-293 cells; 44 µM (44/44 µM for the combination), replicate 3
  Cell viability (% of control): 114 % of control
HEK-293 cells; 88 µM (88/88 µM for the combination), replicate 1
  Cell viability (% of control): 103 % of control
HEK-293 cells; 88 µM (88/88 µM for the combination), replicate 3
  Cell viability (% of control): 114 % of control
HEK-293 cells; all the concentrations tested (up to 88 µM)
  effect on viability of HEK-293 cells: did not affect the viability
[1]
  bactericidal effect: bactericidal
P. aeruginosa B1954
  MIC: 88.3 µM (≈ 128 µg/mL)
[2]
  MIC: 44.2 µM (≈ 64 µg/mL)
E. coli B1927
  MIC: 88.3 µM (≈ 128 µg/mL)
[3]
  MIC: > 88.3 µM
A. baumannii B2026
  MIC: 22.1 µM (≈ 32 µg/mL)
K. pneumoniae B1945
  MIC: > 88.3 µM
[4]
  MIC: > 88.3 µM
P. aeruginosa PA14; mouse 1 of 5, P. aeruginosa PA14 s.c., treatment injected into infection area 1 h post-infection, 24 h, vancomycin 3 mg/kg, D-11 10 mg/kg, or both
  log10 CFU per abscess: 8.341 log10 CFU per abscess
P. aeruginosa PA14; mouse 2 of 5, same conditions
  log10 CFU per abscess: 7.354 log10 CFU per abscess
P. aeruginosa PA14; mouse 3 of 5, same conditions
  log10 CFU per abscess: 7.321 log10 CFU per abscess
P. aeruginosa PA14; mouse 4 of 5, same conditions
  log10 CFU per abscess: 7.43 log10 CFU per abscess
P. aeruginosa PA14; mouse 5 of 5, same conditions
  log10 CFU per abscess: 7.5121 log10 CFU per abscess
K. pneumoniae LMG 20218; vancomycin 2 µM
  bacterial count in infected whole blood after 6 h: 10^12 CFU/mL
K. pneumoniae LMG 20218; vancomycin 4 µM
  bacterial count in infected whole blood after 6 h: 10^12 CFU/mL
K. pneumoniae LMG 20218; vancomycin 8 µM
  bacterial count in infected whole blood after 6 h: 10^12 CFU/mL
K. pneumoniae LMG 20218; vancomycin 16 µM
  bacterial count in infected whole blood after 6 h: 10^10 CFU/mL
